Values quoted from earlier work in publication PMC10014483 (Bioorganic & Medicinal Chemistry Letters, 2023).

Legend:
[1] = mice
SARS-CoV-2 = conditions: transgenic mouse model of SARS-CoV-2 infection, orally effective

SMILES: CC(C)(C)OC(=O)Nc1cccn([C@@H](CC2CC2)C(=O)N[C@@H](C[C@@H]2CCNC2=O)C(=O)C(=O)NCc2ccccc2)c1=O [Compound 13b]
- toxicity [1]: low toxicity

SMILES: CC1(C)[C@@H]2[C@@H](C(=O)N[C@H](C=O)C[C@@H]3CCNC3=O)N(C(=O)COc3ccc(OC(F)(F)F)cc3)C[C@@H]21 [MI-09]
- viral load in the lungs and lung lesions (SARS-CoV-2): significantly reduced

SMILES: CC(C)(C)[C@H](NC(=O)C(F)(F)F)C(=O)N1C[C@H]2[C@@H]([C@H]1C(=O)N[C@H](C#N)C[C@@H]1CCNC1=O)C2(C)C [Nirmatrelvir]
- oral bioavailability: unsatisfied
- plasma half-life: short
